Where two headings read alike, the source gives them in different places.
Columns and labels:
zebrafish Mate4 = zebrafish Mate4 (Danio rerio, UniProt U3Q0C3); test: DAPI inhibition assay, Mate4; type: cell-based
Experimental: (§1) HEK293T cells were transiently transfected as described previously[31] using the PEI (polyethyleneimine) reagent in 48-well plates. Cells were in parallel transfected with pcDNA3.1/His/LacZ plasmid and transfection efficiency was evaluated 24 h after transfection with the LacZ staining protocol.
(§2) HEK293T cells overexpressing respective single zebrafish Mate transporter were used for further experiments. […] DAPI fluorescence was measured at 360 and 460 nm […], respectively. The uptake into vector-transfected HEK293T cells (mock cells) was subtracted to obtain transporter-specific uptake.
(§3) Inhibition assays using DAPI as a fluorescent substrate were performed in the same transport medium. […] Compounds tested for interaction were checked using at least four concentrations but only a representative concentration (with the highest response or the largest concentration in solubility range) is shown.
(§4) For the purpose of IC50 calculations, data were fitted to the sigmoidal four-parameter dose-response model (variable slope),

zebrafish Mate6 = zebrafish Mate6 (Danio rerio, UniProt A1L2E7); test: DAPI inhibition assay, Mate6; type: cell-based
Chain of zebrafish Mate6 (A1L2E7 entry or part of it): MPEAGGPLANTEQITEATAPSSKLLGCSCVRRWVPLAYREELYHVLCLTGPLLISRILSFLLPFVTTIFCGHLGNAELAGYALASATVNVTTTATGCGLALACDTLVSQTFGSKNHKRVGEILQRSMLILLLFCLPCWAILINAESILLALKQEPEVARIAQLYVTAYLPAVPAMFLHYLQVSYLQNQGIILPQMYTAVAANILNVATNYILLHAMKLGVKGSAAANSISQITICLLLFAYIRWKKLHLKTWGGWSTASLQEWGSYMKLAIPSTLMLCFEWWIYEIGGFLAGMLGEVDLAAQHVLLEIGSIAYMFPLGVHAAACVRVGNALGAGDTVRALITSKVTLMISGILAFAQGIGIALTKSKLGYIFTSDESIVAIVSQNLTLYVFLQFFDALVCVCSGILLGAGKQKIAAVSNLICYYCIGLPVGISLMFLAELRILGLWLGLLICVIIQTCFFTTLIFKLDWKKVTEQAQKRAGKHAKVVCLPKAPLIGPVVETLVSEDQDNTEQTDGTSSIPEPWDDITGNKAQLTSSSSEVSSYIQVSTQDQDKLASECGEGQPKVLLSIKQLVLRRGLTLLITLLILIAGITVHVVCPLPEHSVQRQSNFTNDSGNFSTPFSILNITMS
Experimental: as §1, §2, §3, §4

zebrafish Mate7 = zebrafish Mate7 (Danio rerio, UniProt U3PTD6); test: DAPI inhibition assay, Mate7; type: cell-based; conditions: for interaction strength: Mate7, class by IC50 of DAPI uptake inhibition
Chain of zebrafish Mate7 (U3PTD6 entry or part of it): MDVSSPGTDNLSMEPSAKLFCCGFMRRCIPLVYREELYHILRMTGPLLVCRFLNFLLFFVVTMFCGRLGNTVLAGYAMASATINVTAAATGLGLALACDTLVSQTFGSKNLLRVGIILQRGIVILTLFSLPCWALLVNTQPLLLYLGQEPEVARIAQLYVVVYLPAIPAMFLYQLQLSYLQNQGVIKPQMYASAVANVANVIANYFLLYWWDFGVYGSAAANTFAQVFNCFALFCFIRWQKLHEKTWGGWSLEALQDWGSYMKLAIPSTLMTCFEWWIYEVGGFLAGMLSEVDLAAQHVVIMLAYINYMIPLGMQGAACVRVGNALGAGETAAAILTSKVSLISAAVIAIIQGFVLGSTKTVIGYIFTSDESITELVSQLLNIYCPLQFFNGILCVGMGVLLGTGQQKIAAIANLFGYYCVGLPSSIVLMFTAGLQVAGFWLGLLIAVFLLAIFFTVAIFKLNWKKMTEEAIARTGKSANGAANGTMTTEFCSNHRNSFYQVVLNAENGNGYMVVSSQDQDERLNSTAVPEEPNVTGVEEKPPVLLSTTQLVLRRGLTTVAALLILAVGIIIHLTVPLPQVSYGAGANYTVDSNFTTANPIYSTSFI
Experimental: as §1, §2, §3, §4

zebrafish Mate8 = zebrafish Mate8 (Danio rerio, UniProt A0A8M6YZ09); test: DAPI inhibition assay, Mate8; type: cell-based; conditions: for interaction strength: Mate8, class by IC50 of DAPI uptake inhibition
Chain of zebrafish Mate8 (A0A8M6YZ09 entry or part of it): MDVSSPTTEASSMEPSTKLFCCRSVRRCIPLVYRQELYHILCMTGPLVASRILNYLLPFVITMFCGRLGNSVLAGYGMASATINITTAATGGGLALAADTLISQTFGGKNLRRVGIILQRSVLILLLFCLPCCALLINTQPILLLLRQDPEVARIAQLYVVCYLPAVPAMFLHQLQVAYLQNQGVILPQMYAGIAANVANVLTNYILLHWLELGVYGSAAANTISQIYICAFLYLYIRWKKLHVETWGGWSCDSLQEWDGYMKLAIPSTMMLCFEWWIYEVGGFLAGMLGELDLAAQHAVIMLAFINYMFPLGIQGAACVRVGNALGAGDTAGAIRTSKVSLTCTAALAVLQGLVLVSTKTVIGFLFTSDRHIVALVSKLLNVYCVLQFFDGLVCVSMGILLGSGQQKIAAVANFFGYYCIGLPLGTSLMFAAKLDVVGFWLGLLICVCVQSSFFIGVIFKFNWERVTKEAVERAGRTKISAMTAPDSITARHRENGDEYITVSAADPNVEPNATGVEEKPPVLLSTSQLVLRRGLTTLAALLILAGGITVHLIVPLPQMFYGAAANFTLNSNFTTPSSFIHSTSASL
Experimental: as §1, §2, §3, §4

human MATE1 = human MATE1 ref 40; cited from earlier work
human MATE2 = human MATE2 ref 40; cited from earlier work
rat Mate1 = rat Mate1 ref 3; cited from earlier work

Chain of zebrafish Mate4 (U3Q0C3 entry or part of it): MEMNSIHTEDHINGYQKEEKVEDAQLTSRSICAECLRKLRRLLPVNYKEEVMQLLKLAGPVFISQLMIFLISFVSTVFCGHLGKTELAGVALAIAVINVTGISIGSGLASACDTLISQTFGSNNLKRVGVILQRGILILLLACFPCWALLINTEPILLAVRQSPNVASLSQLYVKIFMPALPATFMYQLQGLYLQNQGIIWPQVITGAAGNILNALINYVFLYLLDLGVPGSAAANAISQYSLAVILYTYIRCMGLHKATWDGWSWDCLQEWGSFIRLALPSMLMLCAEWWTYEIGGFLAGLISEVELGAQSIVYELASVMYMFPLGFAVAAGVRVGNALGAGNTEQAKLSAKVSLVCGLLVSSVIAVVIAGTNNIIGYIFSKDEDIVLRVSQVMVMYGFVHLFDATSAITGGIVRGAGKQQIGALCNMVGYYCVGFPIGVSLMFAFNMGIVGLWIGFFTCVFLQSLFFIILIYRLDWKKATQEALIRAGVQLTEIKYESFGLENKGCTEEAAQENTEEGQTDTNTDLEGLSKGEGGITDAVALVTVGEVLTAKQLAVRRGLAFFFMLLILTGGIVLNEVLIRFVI

Row | SMILES | IC50 (zebrafish Mate4; read-out: IC50) [µM] | IC50 (zebrafish Mate6; read-out: IC50) [µM] | interaction strength (zebrafish Mate7) | IC50 (zebrafish Mate7; read-out: IC50) [µM] | interaction strength (zebrafish Mate8) | IC50 (zebrafish Mate8; read-out: IC50) [µM] | Km (human MATE1) [µM] | Km (human MATE2) [µM] | IC50 (zebrafish Mate4) [µM] | IC50 (zebrafish Mate6) [µM] | IC50 (zebrafish Mate7) [µM] | IC50 (zebrafish Mate8) [µM] | Km (rat Mate1) [µM]
1 | Cc1ncc(C[n+]2csc(CCO)c2C)c(N)n1 [Thiamine, thiamine] | 805 | 724 | weak (IC50 of 100–999 μM was classified as weak interaction) | 935 | very weak (substances with IC50 above 1000 μM were considered very weak interactors) | 1900 | 3.5 | 3.9 | – | – | – | – | –
2 | CN/C(=N/CCSCc1nc[nH]c1C)NC#N [Cimetidine, cimetidine, reference compound] | – | – | weak (IC50 of 100–999 μM was classified as weak interaction) | – | strong (Compounds with IC50 of 1–29 μM were designated as strong interactors) | – | – | – | 134 | 357 | 573 | 4.5 | 3
